Data published in US7179825B2, “Retinoic acid mimetic anilides” (Janssen Pharmaceutica N.V., priority 1997, dated 2007).

Experiments:
[1] = tested on: metabolism of retinoic acid in human breast cancer cells; assay: Inhibition of retinoic acid (RA) metabolism (Example C.1); format: cell-based; settings: MCF-7 human breast cancer cells, 3H-RA as substrate, concentration needed to reduce the amount of metabolites to 50% of the control
Description: The property to delay the metabolism of retinoic acid can be evidenced in various in vitro and in vivo experiments. A particular in vitro procedure is described in example C.1 and tests the inhibitory activity of the compounds of formula (I) on the metabolism of retinoic acid in human breast cancer cells. The compounds of the present invention were also effective in suppressing induced vaginal keratinization effects in ovariectomized rats as is described in example C.2.
Inhibition of Retinoic Acid (RA) Metabolism
MCF-7 human breast cancer cells were grown as stock cultures according to art-known protocols. One day before the experiment, RA is added to the stock cultures to stimulate RA-metabolism. At the start of the experiment, cell suspensions were incubated in a tissue culture medium containing ^3H-RA as the substrate. Different concentrations of the test compound (dissolved in 1% DMSO) were added to the incubation mixtures, and at the end of the incubation, the unmetabolized RA is separated from its polar metabolites. The fraction containing the polar ^3H-labelled metabolites was collected and counted in a scintillation counter. For each experiment, a control and a blank incubation were run in parallel. Table 22 list the IC50 value (defined as the concentration in M needed to reduce the amount of metabolites to 50% of the control).

Ovariectomized rats = assay: Vaginal keratinization test on ovariectomized rats (Example C.2); format: in vivo; settings: estradiol undecylate induced keratinization, per os once daily on days 1-3, active dose = 50% of rats show complete suppression
Summary of the method: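 Value is the lowest oral dose (mg/kg) at which half of tested rats show complete suppression of estradiol undecylate-induced vaginal keratinization by histology. Ovariectomized rats received 100 μg/100 g estradiol undecylate s.c., then compound or PEG 200 vehicle p.o. daily for three days; sacrifice one day later.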

Compound	IC50 [1]	IC50 ([1]; MCF7)	LAD (lowest active dose) (Ovariectomized rats)	minimal effective dose (Ovariectomized rats; Rattus norvegicus, po, read-out: LAD (lowest active dose))
CC(C)C(c1ccc(NC(=O)C(=Cc2ccccc2)C2CCCC2)cc1)n1ccnc1 (racemic) [Compound 472]	95.1 nM		>20.00 mg/kg	
CC(=CC(=O)Nc1ccc(C(c2ccc(Cl)cc2)n2ccnc2)cc1)c1ccccc1 (racemic) [Compound 512]	616 nM		>20.00 mg/kg	
CCC(CC)C(c1ccc(NC(=O)C2=Cc3ccccc3OC2)cc1)n1ccnc1 (racemic) [Compound 31]	2.63 nM		5.00 mg/kg	
O=C(Cc1ccccc1)Nc1ccc(C(c2cccc(C(F)(F)F)c2)n2cncn2)cc1 (racemic) [Compound 614]	278 nM		>20.00 mg/kg	
CCC(CC)C(c1ccc(NC(=O)C2CCN(C(=O)OC(C)(C)C)CC2)cc1)n1ccnc1 (racemic) [Compound 53]	2.12 nM		>2.50 mg/kg	
O=C(CC1COc2ccccc2O1)Nc1ccc(C(c2ccccc2)n2ccnc2)cc1 (stereo not shown) [Compound 426]	> 100 nM		>10.00 mg/kg	
CCC(CC)C(c1ccc(NC(=O)Nc2ccccc2F)cc1)n1ccnc1 (racemic) [Compound 713]	1.38 nM		2.50 mg/kg	
CCC(CC)C(c1ccc(NC(=O)Nc2nc3ccccc3s2)cc1)n1cncn1 (racemic) [Compound 63]	6.7 nM		>5.00 mg/kg	
CCC(CC)C(c1ccc(NC(=O)C2CCc3ccccc3O2)cc1)n1ccnc1 (stereo not shown) [Compound 29]	8.12 nM		5.00 mg/kg	
Cc1nccn1C(c1ccc(NC(=O)Cc2ccc(Cl)cc2)cc1)C(C)C (stereo not shown) [Compound 695]	> 100 nM		>10.00 mg/kg	
CCC(CC)C(c1ccc(NC(=O)c2nc3ccccc3s2)cc1)n1ccnc1.O=C(O)C(=O)O (stereo not shown) [Compound 778]	75.9 nM		5.00 mg/kg	
CCC(CC)C(c1ccc(NC(=O)c2cnccn2)cc1)n1ccnc1 (racemic) [Compound 27]	0.232 nM		5.00 mg/kg	
CCC(CC)C(c1ccc(NC(=O)c2ccc3c(c2)C(C)(C)CCC3(C)C)cc1)n1ccnc1 (racemic) [Compound 30]	25.8 nM		>5.00 mg/kg	
C/C(=C\c1ccncc1)C(=O)Nc1ccc(C(C(C)C)n2cncn2)cc1 (stereo not shown) [Compound 158]	> 100 nM		>10.00 mg/kg	
CC(C)C(c1ccc(NC(=O)C=C(c2ccccc2)c2ccccc2)cc1)n1ccnc1 (racemic) [Compound 511]	10.5 nM		>20.00 mg/kg	
CC(C)C(c1ccc(NC(=O)Nc2cccc(F)c2)cc1)n1cncn1 (racemic) [Compound 725]	3.29 nM		5.00 mg/kg	
O=C(C=C(c1ccccc1)c1ccccc1)Nc1ccc(C(c2ccc(Cl)cc2)c2ccccn2)cc1 (stereo not shown) [Compound 680]	12.1 nM		>20.00 mg/kg	
C/C(=C\c1ccccc1)C(=O)Nc1ccc(C(C)n2ccnc2)cc1 (racemic) [Compound 466]	> 1000 nM		>20.00 mg/kg	
CC(=Cc1ccccc1)C(=O)Nc1ccc(C(C(C)Sc2ccccc2)n2ccnc2)cc1 (single isomer, unassigned) [Compound 483]	19.8 nM		>5.00 mg/kg	
CC(C)C(c1ccc(NC(=O)C2CCCO2)cc1)n1ccnc1 (racemic) [Compound 181]	14.1 nM		10.00 mg/kg	
CC(=O)Nc1ccc(C(c2cccc(C(F)(F)F)c2)n2cncn2)cc1 (stereo not shown) [Compound 613]	1800 nM		>20.00 mg/kg	
CCC(CC)C(c1ccc(NC(=O)Cc2cc(OC)ccc2OC)cc1)n1ccnc1 (racemic) [Compound 98]	1.64 nM		5.00 mg/kg	
CCC(CC)C(c1ccc(NC(=O)c2ccc(OC)nc2)cc1)n1ccnc1 (racemic) [Compound 45]	0.172 nM		2.50 mg/kg	
CC(C)C(=CC(=O)Nc1ccc(C(c2ccc(Cl)cc2)n2ccnc2)cc1)c1ccccc1 (mixture of isomers) [Compound 515]	> 1000 nM		>20.00 mg/kg	
Cc1nccn1C(c1ccc(NC(=O)Nc2cccc(F)c2)cc1)C(C)C (stereo not shown) [Compound 773]	> 100 nM		>10.00 mg/kg	

Now from value to molecule, other results behind:

IC50 [1]	IC50 ([1]; MCF7)	Compound	LAD (lowest active dose) (Ovariectomized rats)	minimal effective dose (Ovariectomized rats; Rattus norvegicus, po, read-out: LAD (lowest active dose))
1.61 nM		COc1ccc(NC(=O)Nc2ccc(C(C(C)C)n3ccnc3)cc2)cc1OC (racemic) [Compound 708]	>5.00 mg/kg	
3.68 nM		COCC(C)C(c1ccc(NC(=O)Cc2ccc(OC)c(OC)c2)cc1)n1ccnc1 (single isomer, unassigned) [Compound 405]	5.00 mg/kg	
3.89 nM		CC(C)C(c1ccc(NC(=O)c2cccc3c2OCCO3)cc1)n1ccnc1 (racemic) [Compound 230]	>10.00 mg/kg	
0.734 nM		CCOc1ccc(CCC(=O)Nc2ccc(C(C(CC)CC)n3ccnc3)cc2)cc1 (single isomer, unassigned) [Compound 61]	2.50 mg/kg	
0.531 nM		CC(C)C(c1ccc(NC(=O)c2ccco2)cc1)n1ccnc1 (racemic) [Compound 169]	10.00 mg/kg	
2.34 nM		CC(C)C(c1ccc(NC(=O)Cc2cccc(C(F)(F)F)c2)cc1)n1ccnc1 (racemic) [Compound 654]	5.00 mg/kg	
1.85 nM		CC(C)C(c1ccc(NC(=O)Cc2cccc(O)c2)cc1)n1cncn1 (stereo not shown) [Compound 137]	>5.00 mg/kg	
2.3 nM		CC(C)C(c1ccc(NC(=O)Cc2cccs2)cc1)n1ccnc1 (racemic) [Compound 244]	10.00 mg/kg	
2.07 nM		CC(C)C(c1ccc(NC(=O)CNc2ccccc2)cc1)n1ccnc1 (racemic) [Compound 213]	20.00 mg/kg	
22.8 nM		CC/C(=C(\C)C(=O)Nc1ccc(C(C(C)C)n2ccnc2)cc1)c1ccccc1 (stereo not shown) [Compound 203]	>10.00 mg/kg	
1.48 nM		CC(C)C(c1ccc(NC(=O)c2ccc(Br)o2)cc1)n1ccnc1 (racemic) [Compound 220]	20.00 mg/kg	
6.94 nM		CC(C)C(c1ccc(NC(=O)Cc2ccco2)cc1)n1ccnc1 (racemic) [Compound 235]	5.00 mg/kg	
7.8 nM		CC(C)C(c1ccc(NC(=O)c2ccnc3ccccc23)cc1)n1ccnc1 (racemic) [Compound 227]	>10.00 mg/kg	
40.1 nM		C/C(=C\c1ccc2ccccc2c1)C(=O)Nc1ccc(C(C(C)C)n2ccnc2)cc1 (racemic) [Compound 591]	>10.00 mg/kg	
2.76 nM		CCC(CC)C(c1ccc(NC(=O)Cc2ccc3c(c2)OCO3)cc1)n1ccnc1 (racemic) [Compound 28]	2.50 mg/kg	
6.38 nM		COc1cc(CC(=O)Nc2ccc(C(C(C)C)n3cncn3)cc2)ccc1O (stereo not shown) [Compound 138]	>5.00 mg/kg	
2.22 nM		CC(C)C(c1ccc(NC(=O)CNC(=O)c2ccccc2)cc1)n1ccnc1 (racemic) [Compound 261]	>10.00 mg/kg	
1.98 nM		CCC(CC)C(c1ccc(NC(=O)Cc2ccc(-c3ccccc3)cc2)cc1)n1ccnc1 (stereo not shown) [Compound 41]	2.50 mg/kg	
	3.2 nM	CCOC(=O)CCCC(=O)Nc1ccc(C(C(C)C)n2ccnc2)cc1 (racemic) [Compound 219, (±)-ethyl 5-[[4-[1-(1H-imidazol-1-yl)-2-methylpropyl]phenyl]amino]-5-oxopentanoate]		20 mg/kg
2.04 nM		CCOc1ccc(CCC(=O)Nc2ccc(C(C(C)N(C)C)n3ccnc3)cc2)cc1 (single isomer, unassigned) [Compound 346]	>5.00 mg/kg	
3.2 nM		CC(C)C(c1ccc(NC(=O)Cc2ccc3c(c2)C(C)(C)CCC3(C)C)cc1)n1ccnc1 (racemic) [Compound 256]	>2.50 mg/kg	
0.25 nM		CCC(CC)C(c1ccc(NC(=O)Cc2ccc(O)cc2)cc1)n1cncn1 (racemic) [Compound 69]	2.50 mg/kg	
5.18 nM		CC(C)C(c1ccc(NC(=O)Cc2ccc(N)cc2)cc1)n1ccnc1 (stereo not shown) [Compound 152]	>5.00 mg/kg	
> 100 nM		CC(C)/C(=C\c1ccccc1)C(=O)Nc1ccc(C(C(C)C)n2ccnc2)cc1 (stereo not shown) [Compound 471]	>10.00 mg/kg	
2.1 nM		CC(C)C(c1ccc(NC(=O)Cc2cccc3ccccc23)cc1)n1ccnc1 (racemic) [Compound 246]	10.00 mg/kg	
